Measured values as given in patent publication US20090131304A1, “Semi-Synthetic Desmethyl-Vancomycin-Based Glycopeptides With Antibiotic Activity” (Novartis Vaccines and Diagnostics, Inc., priority 2005, published 2009).
In brackets after ≈: the same amount, converted by molar mass. Where two headings read alike, the source gives them in different places.

How the values were obtained:
Assay type in all cases: cell-based
[1] = system: glycopeptide-intermediate Staphylococus aureus (GISA) (D); test: MIC, NCCLS microdilution broth procedure, GISA (D)
Method: (§1) The following table identifies specific species of compounds according to the present invention and information concerning their associated antibacterial activity. The antibacterial activity of three compounds in accordance with the present invention (N-biphenyl-methyl-norvacomycin (A); N-chloro-biphenyl-methyl-norvacomycin (B) and desmethyl-vancomycin-gly-p-n-octyloxybenzyl (C)) were tested and compared to unmodified vancomycin (Van) and norvancoycin (Nor). MIC (minimum inhibitory concentration) was measured according to NCCLS standards using the microdilution broth procedure. Serial dilutions of the compounds were placed in a 96-well microplate containing Mueller-Hinton medium. Based on absorbance of 600 nm, diluted overnight cultures were placed in the wells at a final concentration of 5×10^5 cfu/mL. The plate was then placed in a culture box at 35° C. The next day, MIC was determined by visual observation of the plates.
(§2) The glycopeptides were tested against a variety of strains well known in the art for such testing, including methicillin-susceptible Staphylococus aureus (MSSA), methicillin-susceptible Staphylococus epidermidis (MSSE), methicillin-resistant Staphylococus aureus (MRSA), methicillin-resistant Staphylococus epidermidis (MRSE), and glycopeptide-intermediate Staphylococus aureus (GISA). Results are shown in the Table 1 as minimum inhibitory concentration (MIC) in units of μg/ml: […]

[2] = system: glycopeptide-intermediate Staphylococus aureus (GISA) (V); test: MIC, NCCLS microdilution broth procedure, GISA (V)
Method: as §1, §2

[3] = system: methicillin-resistant Staphylococus aureus (MRSA); test: MIC, NCCLS microdilution broth procedure, MRSA; details: for MIC: Staphylococcus aureus, MRSA
Method: as §1, §2

[4] = system: methicillin-resistant Staphylococus epidermidis (MRSE); test: MIC, NCCLS microdilution broth procedure, MRSE; details: for MIC: Staphylococcus epidermidis, read-out: minimum inhibitory concentration (MIC)
Method: as §1, §2

[5] = system: methicillin-susceptible Staphylococus aureus (MSSA); test: MIC, NCCLS microdilution broth procedure, MSSA; details: for MIC: Staphylococcus aureus, read-out: minimum inhibitory concentration (MIC)
Method: as §1, §2

[6] = system: methicillin-susceptible Staphylococus epidermidis (MSSE); test: MIC, NCCLS microdilution broth procedure, MSSE; details: for MIC: read-out: minimum inhibitory concentration (MIC)
Method: as §1, §2

[7] = GISA (D) strain # 68, read-out: minimum inhibitory concentration (MIC)
[8] = GISA (V) strain # 68, read-out: minimum inhibitory concentration (MIC)
[9] = GISA (V) strain # 143, read-out: minimum inhibitory concentration (MIC)
[10] = MRSA strain # 134, read-out: minimum inhibitory concentration (MIC)
[11] = MRSA strain # 143, read-out: minimum inhibitory concentration (MIC)
[12] = read-out: minimum inhibitory concentration (MIC)

Row | SMILES | MIC [1, 7] | minimum inhibitory concentration (MIC) ([1]; GISA (D) strain # 143) | MIC [2, 8] | MIC [2, 9] | MIC [3, 10] | MIC [3, 11] | minimum inhibitory concentration (MIC) ([4]; MRSE strain # 25) | minimum inhibitory concentration (MIC) ([4]; MRSE strain # 26) | MIC ([4]; MRSE strain # 24) | minimum inhibitory concentration (MIC) ([5]; MSSA strain # 83) | MIC ([5]; MSSA strain # 68) | MIC ([6]; MSSE strain # 3) | minimum inhibitory concentration (MIC) ([6]; MSSE strain # 10) | MIC ([4]; MRSE) | MIC ([5]; MSSA) | MIC [6] | minimum inhibitory concentration (MIC) ([2]; GISA (V) strain # 143) | minimum inhibitory concentration (MIC) ([3]; MRSA strain # 143) | further results
1 | CC(C)C[C@H](N)C(=O)N[C@H]1C(=O)N[C@@H](CC(N)=O)C(=O)N[C@H]2C(=O)N[C@H]3C(=O)NC(C(=O)N[C@H](C(=O)O)c4cc(O)cc(O)c4-c4cc3ccc4O)[C@H](O)c3ccc(c(Cl)c3)Oc3cc2cc(c3OC2O[C@H](CO)[C@@H](O)[C@H](O)C2O[C@H]2C[C@](C)(NCc3ccc(-c4ccccc4)cc3)[C@H](O)[C@H](C)O2)Oc2ccc(cc2Cl)[C@H]1O (some centres unmarked) [Compound A, N-Biphenyl-Methyl-Desmethyl-vancomycin] | 8 µg/mL (≈ 5 µM) | 8 µg/mL (≈ 5 µM) | 8 µg/mL (≈ 5 µM) | 4 µg/mL (≈ 2.5 µM) | 2 µg/mL (≈ 1.25 µM) | 4 µg/mL (≈ 2.5 µM) | 4 µg/mL (≈ 2.5 µM) | 4 µg/mL (≈ 2.5 µM) | 4 µg/mL (≈ 2.5 µM) | 2 µg/mL (≈ 1.25 µM) | 2 µg/mL (≈ 1.25 µM) | 4 µg/mL (≈ 2.5 µM) | 4 µg/mL (≈ 2.5 µM) | – | – | – | – | – | –
2 | CC(C)C[C@H](N)C(=O)N[C@H]1C(=O)N[C@@H](CC(N)=O)C(=O)N[C@H]2C(=O)N[C@H]3C(=O)NC(C(=O)N[C@H](C(=O)O)c4cc(O)cc(O)c4-c4cc3ccc4O)[C@H](O)c3ccc(c(Cl)c3)Oc3cc2cc(c3OC2O[C@H](CO)[C@@H](O)[C@H](O)C2O[C@H]2C[C@](C)(NCc3ccc(-c4ccc(Cl)cc4)cc3)[C@H](O)[C@H](C)O2)Oc2ccc(cc2Cl)[C@H]1O (some centres unmarked) [Compound B, N-Chloro-Biphenyl-Methyl-Desmethyl-vancomycin] | 1 µg/mL (≈ 0.611 µM) | 1 µg/mL (≈ 0.611 µM) | 1 µg/mL (≈ 0.611 µM) | 1 µg/mL (≈ 0.611 µM) | 0.5 µg/mL (≈ 0.306 µM) | 0.5 µg/mL (≈ 0.306 µM) | 0.5 µg/mL (≈ 0.306 µM) | 0.5 µg/mL (≈ 0.306 µM) | 0.5 µg/mL (≈ 0.306 µM) | 0.5 µg/mL (≈ 0.306 µM) | 0.5 µg/mL (≈ 0.306 µM) | 0.5 µg/mL (≈ 0.306 µM) | 0.5 µg/mL (≈ 0.306 µM) | – | – | – | – | – | –
3 | CCCCCCCCOc1ccc(CNCC(=O)N[C@@]2(C)C[C@H](OC3C(Oc4c5cc6cc4Oc4ccc(cc4Cl)[C@@H](O)[C@@H](NC(=O)[C@@H](N)CC(C)C)C(=O)N[C@@H](CC(N)=O)C(=O)N[C@H]6C(=O)N[C@H]4C(=O)NC(C(=O)N[C@H](C(=O)O)c6cc(O)cc(O)c6-c6cc4ccc6O)[C@H](O)c4ccc(c(Cl)c4)O5)O[C@H](CO)[C@@H](O)[C@@H]3O)O[C@@H](C)[C@H]2O)cc1 (some centres unmarked) [Compound C, Desmethyl-vancomycin-Gly-p-n-Octyloxybenzyl] | – | 4 µg/mL (≈ 2.34 µM) | – | – | – | – | 2 µg/mL (≈ 1.17 µM) | 2 µg/mL (≈ 1.17 µM) | – | 2 µg/mL (≈ 1.17 µM) | – | – | 1 µg/mL (≈ 0.585 µM) | 2 µg/mL (≈ 1.17 µM) | 2 µg/mL (≈ 1.17 µM) | 1 µg/mL (≈ 0.585 µM) | – | – | MIC [1, 12]: 4 µg/mL (≈ 2.34 µM); MIC ([2]; read-out: minimum inhibitory concentration (MIC), GISA (V) strain # 68): 4 µg/mL (≈ 2.34 µM); MIC ([2]; read-out: minimum inhibitory concentration (MIC), GISA (V) strain # 143): 2 µg/mL (≈ 1.17 µM); MIC ([3]; read-out: minimum inhibitory concentration (MIC), MRSA strain # 134): 2 µg/mL (≈ 1.17 µM); MIC ([3]; read-out: minimum inhibitory concentration (MIC), MRSA strain # 143): 1 µg/mL (≈ 0.585 µM)
4 | CC(C)C[C@@H](N)C(=O)N[C@H]1C(=O)N[C@@H](CC(N)=O)C(=O)N[C@H]2C(=O)N[C@H]3C(=O)N[C@H](C(=O)N[C@H](C(=O)O)c4cc(O)cc(O)c4-c4cc3ccc4O)[C@H](O)c3ccc(c(Cl)c3)Oc3cc2cc(c3O[C@@H]2O[C@H](CO)[C@@H](O)[C@H](O)[C@H]2O[C@H]2C[C@](C)(N)[C@H](O)[C@H](C)O2)Oc2ccc(cc2Cl)[C@H]1O [Nor, norvancoycin, reference compound] | – | 4 µg/mL (≈ 2.79 µM) | – | – | – | – | 2 µg/mL (≈ 1.39 µM) | 2 µg/mL (≈ 1.39 µM) | – | 2 µg/mL (≈ 1.39 µM) | – | – | 2 µg/mL (≈ 1.39 µM) | – | – | – | 8 µg/mL (≈ 5.57 µM) | 2 µg/mL (≈ 1.39 µM) | minimum inhibitory concentration (MIC) ([1]; GISA (D) strain # 68): 4 µg/mL (≈ 2.79 µM); minimum inhibitory concentration (MIC) ([2]; GISA (V) strain # 68): 4 µg/mL (≈ 2.79 µM); minimum inhibitory concentration (MIC) ([3]; MRSA strain # 134): 2 µg/mL (≈ 1.39 µM); minimum inhibitory concentration (MIC) ([4]; MRSE strain # 24): 2 µg/mL (≈ 1.39 µM); minimum inhibitory concentration (MIC) ([5]; MSSA strain # 68): 2 µg/mL (≈ 1.39 µM); minimum inhibitory concentration (MIC) ([6]; MSSE strain # 3): 2 µg/mL (≈ 1.39 µM)
5 | CN[C@H](CC(C)C)C(=O)N[C@H]1C(=O)N[C@@H](CC(N)=O)C(=O)N[C@H]2C(=O)N[C@H]3C(=O)N[C@H](C(=O)N[C@H](C(=O)O)c4cc(O)cc(O)c4-c4cc3ccc4O)[C@H](O)c3ccc(c(Cl)c3)Oc3cc2cc(c3O[C@@H]2O[C@H](CO)[C@@H](O)[C@H](O)[C@H]2O[C@H]2C[C@](C)(N)[C@H](O)[C@H](C)O2)Oc2ccc(cc2Cl)[C@H]1O [Van, vancomycin] | – | – | – | – | – | – | 2 µg/mL (≈ 1.38 µM) | 2 µg/mL (≈ 1.38 µM) | – | 2 µg/mL (≈ 1.38 µM) | – | – | 2 µg/mL (≈ 1.38 µM) | 2 µg/mL (≈ 1.38 µM) | 2 µg/mL (≈ 1.38 µM) | 2 µg/mL (≈ 1.38 µM) | 8 µg/mL (≈ 5.52 µM) | 2 µg/mL (≈ 1.38 µM) | MIC ([1]; read-out: minimum inhibitory concentration (MIC), GISA (D) strain # 68): 8 µg/mL (≈ 5.52 µM); MIC ([1]; read-out: minimum inhibitory concentration (MIC), GISA (D) strain # 143): 4 µg/mL (≈ 2.76 µM); MIC [2, 12]: 8 µg/mL (≈ 5.52 µM); MIC [3, 12]: 2 µg/mL (≈ 1.38 µM)
